Tested on: B-16 melanoma cells
Test: Tests for tumor cell-proliferation-inhibitory effect and tumor cell-extinction (cell growth rate from viable cell count)
Assay type: cell-based
Conditions: for tumor cell-killing effect (in words): at not less than 2 times the concentration required for proliferation inhibition; for tumor cell-proliferation-inhibitory effect (in words): summary of Table 1
Description: The tumor cell-proliferation-inhibitory effect and the tumor cell-killing or extinction effect can be determined according to the following method using B-16 melanoma cells.
More specifically, B-16 melanoma cells are inoculated in each well of a 6-well plate in a desired amount, followed by allowing the plate to stand at 37° C. and 5% carbon dioxide concentration to thus cultivate the cells, adding a sample solution to be tested (maslinic acid, erythrodiol, ursolic acid, uvaol, betulinic acid, betulin and physiologically acceptable salts thereof or derivatives thereof) to each well in an amount sufficient for achieving a desired concentration, on the next day or after 5 days from the initiation of the cultivation, determination of viable cell count on the 6th day after the initiation of the cultivation and calculation of the cell growth rate based on the viable cell count to thus evaluate the tumor cell-proliferation-inhibitory effect and the tumor cell-killing effect.
Tests for determining the tumor cell-proliferation-inhibitory effect and the tumor cell-killing effect were conducted according to the following method. To a 6-well plate, a culture medium was dispensed in an amount of 2 mL/well, B-16 melanoma cells were then inoculated in a desired quantity and thereafter the melanoma cells were cultivated by allowing the plate or the culture medium to stand at 37° C. and a carbon dioxide concentration of 5%. On the following day, a test sample solution prepared was added to and admixed with the content of each well to a desired concentration and the cultivation of the melanoma cells was continued. The culture medium was then exchanged on the 5th day from the initiation of the cultivation and the test sample solution was again added to each well. On the next day, the culture medium was removed to recover the cultivated melanoma cells, followed by washing the cells with PBS (phosphate buffered saline), determination of the viable cell count, and then calculation of the cell growth rate according to the following equation 1. The tumor cell-proliferation-inhibitory effect and the tumor cell-killing effect of each test sample were evaluated on the basis of the cell growth rate thus determined.
Cell Growth Rate (%)=(A/B)×100
As comparative examples, oleanolic acid, β-amyrin, α-amyrin and lupeol were added to the culture medium to thus determine and evaluate the cell growth rate by the same method used above.

[1] = 15 ppm, viable cell count vs control on 6th day
[2] = 20 ppm, viable cell count vs control on 6th day
[3] = 25 ppm, viable cell count vs control on 6th day
[4] = 30 ppm, viable cell count vs control on 6th day
[5] = 40 ppm, viable cell count vs control on 6th day
[6] = 50 ppm, viable cell count vs control on 6th day
[7] = 5 ppm, viable cell count vs control on 6th day
[8] = 10 ppm, viable cell count vs control on 6th day

Compound	tumor cell-killing effect (in words)	tumor cell-proliferation-inhibitory effect (in words)	Cell Growth Rate [1]	Cell Growth Rate [2]	Cell Growth Rate [3]	Cell Growth Rate [6]	Cell Growth Rate [7]	Cell Growth Rate [8]	further results
C=C(C)[C@@H]1CC[C@]2(C)CC[C@]3(C)[C@H](CC[C@@H]4[C@@]5(C)CC[C@H](O)C(C)(C)[C@@H]5CC[C@]43C)[C@@H]12 [Lupeol, lupeol, reference compound]	not observed	do not possess any tumor cell-proliferation-inhibitory effect at all							activity at 15 ppm (Mus musculus, B16, 144 h, 15 ppm, viable cell count vs control on 6th day, read-out: Cell Growth Rate): 100%; activity at 20 ppm (Mus musculus, B16, 144 h, 20 ppm, viable cell count vs control on 6th day, read-out: Cell Growth Rate): 100%; activity at 25 ppm (Mus musculus, B16, 144 h, 25 ppm, viable cell count vs control on 6th day, read-out: Cell Growth Rate): 100%; activity at 30 ppm (Mus musculus, B16, 144 h, 30 ppm, viable cell count vs control on 6th day): 100%; activity at 40 ppm (Mus musculus, B16, 144 h, 40 ppm, viable cell count vs control on 6th day): 100%; activity at 50 ppm (Mus musculus, B16, 144 h, 50 ppm, viable cell count vs control on 6th day): 100%
CC1(C)CC[C@]2(C)CC[C@]3(C)C(=CC[C@@H]4[C@@]5(C)CC[C@H](O)C(C)(C)[C@@H]5CC[C@]43C)[C@@H]2C1 [β-Amyrin, β-amyrin, reference compound]	not observed	do not possess any tumor cell-proliferation-inhibitory effect at all	100%	100%	100%	100%			Cell Growth Rate [4]: 100%; Cell Growth Rate [5]: 100%
CC(=O)OCC12CCC(C)(C)CC1C1=CCC3C4(C)CCC(OC(C)=O)C(C)(C)C4CCC3(C)C1(C)CC2 (stereo not shown) [Comp. Of Synthetic Ex. 5, 3,28-O-di-acetyl-erythrodiol]			23%	0%	0%		68%	50%	
C[C@H]1[C@H](C)CC[C@]2(C)CC[C@]3(C)C(=CC[C@@H]4[C@@]5(C)CC[C@H](O)C(C)(C)[C@@H]5CC[C@]43C)[C@H]12 [α-Amyrin, α-amyrin, reference compound]	not observed	do not possess any tumor cell-proliferation-inhibitory effect at all	100%	100%	100%	100%			Cell Growth Rate [4]: 100%; Cell Growth Rate [5]: 100%
C=C(C)[C@@H]1CC[C@]2(COC(C)=O)CC[C@]3(C)[C@H](CC[C@@H]4[C@@]5(C)CC[C@H](OC(C)=O)C(C)(C)[C@@H]5CC[C@]43C)[C@@H]12 [Comp. Of Synthetic Ex. 9, 3,28-O-di-acetyl-betulin]			79%		68%	60%	100%		
CC(=O)OC[C@]12CC[C@@H](C)[C@H](C)[C@H]1C1=CC[C@@H]3[C@@]4(C)CC[C@H](OC(C)=O)C(C)(C)[C@@H]4CC[C@@]3(C)[C@]1(C)CC2 [Comp. Of Synthetic Ex. 7, 3,28-O-di-acetyl-uvaol]			71%		54%	42%	85%		
C=C(C)[C@@H]1CC[C@]2(C(=O)OCC)CC[C@]3(C)[C@H](CC[C@@H]4[C@@]5(C)CC[C@H](O)C(C)(C)[C@@H]5CC[C@]43C)[C@@H]12 [Comp. Of Synthetic Ex. 8, betulinic acid ethyl ester]			81%		69%	53%	96%		
2,3-O-di-stearoyl-maslinic acid ethyl ester [Comp. Of Synthetic Ex. 4]			52%	13%	0%		100%	82%	
2,3-O-di-triethylsilyl-maslinic acid triethylsilyl ester [Comp. Of Synthetic Ex. 3]			54%	21%	0%		93%	75%	
CCOC(=O)[C@]12CC[C@@H](C)[C@H](C)[C@H]1C1=CC[C@@H]3[C@@]4(C)CC[C@H](O)C(C)(C)[C@@H]4CC[C@@]3(C)[C@]1(C)CC2 [Comp. Of Synthetic Ex. 6, ursolic acid ethyl ester]			72%		58%	47%	79%		

From US20030153538A1, “Antitumor agent” (The Nisshin OilliO, Ltd., priority 2000, published 2003)
